# Assay results taken from patent US8236788B2, “Azolylmethyloxiranes, use thereof for controlling plant pathogenic fungi, and agents containing the same” (BASF SE, priority 2006, dated 2012).
# Tests used:
# Puccinia recondita = test: Protective activity against brown rust of wheat (Puccrt P1), greenhouse; assay type: in vivo, Puccinia recondita on wheat seedlings; details: 63 ppm active compound, protective spray 1 day before inoculation, assessed visually after further 7 days; untreated plants 90% infected
# Protocol: (§1) The active compounds were prepared separately or jointly as a stock solution comprising 25 mg of active compound which was made up to 10 ml using a mixture of acetone and/or DMSO and the emulsifier Wettol EM 31 (wetting agent having emulsifying and dispersing action based on ethoxylated alkylphenols) in a volume ratio of solvent/emulsifier of 99:1. The mixture was then made up to 100 ml with water. This stock solution was diluted with the solvent/emulsifier/water mixture described to give the concentration of active compounds stated below.
# Leaves of potted wheat seedlings were sprayed to run off point with an aqueous suspension having the active compound concentration stated below. The next day, the treated plants were inoculated with a spore suspension of brown rust of wheat (Puccinia recondita). The plants were then placed in a chamber with high atmospheric humidity (90 to 95%) at 20 to 22° C. for 24 hours. During this time, the spores germinated and the germ tubes penetrated into the leaf tissue. The next day, the test plants were returned to the greenhouse and cultivated at temperatures between 20 and 22° C. and 65 to 70% relative atmospheric humidity for a further 7 days. The extent of the rust fungus development on the leaves was then determined visually.
# Sphaerotheca fuliginea = test: Activity against mildew on cucumber leaves, protective application (Sphrfu P1), greenhouse; assay type: in vivo, Sphaerotheca fuliginea on cucumber seedlings; details: 63 ppm active compound, protective spray 20 hours before inoculation, assessed visually after 7 days; untreated plants 90% infected
# Protocol: as §1
# At the cotyledon stage, leaves of potted cucumber seedlings were sprayed to run off point with an aqueous suspension having the active compound concentration below. 20 hours after the spray coating had dried on, the plants were inoculated with an aqueous spore suspension of mildew of cucumber (Sphaerotheca fuliginea). The plants were then cultivated in a greenhouse at temperatures between 20 and 24° C. and 60 to 80% relative atmospheric humidity for 7 days. The extent of the mildew development was then determined visually in % infection of the cotyledon area.
compound,measurement,setting,value
"N#Cc1ccc(C2(Cn3cncn3)OC2c2ccccc2F)c(F)c1 (stereo not drawn) [Compound 69.3, 4-{anti-2-[(1H-1,2,4-triazol-1-yl)methyl]-3-[2-fluorophenyl]oxiran-2-yl}-3-fluorobenzonitrile]",infection (extent of rust fungus development on the leaves),Puccinia recondita,0%
same,infection of the cotyledon area,Sphaerotheca fuliginea,1%
